Data reported in US10919887B2, “Salts and solid forms of a monobactam antibiotic” (Novartis AG, priority 2015, dated 2021).
≈ marks a conversion by molar mass, not a printed value.

Columns and labels:
[1] = test system: E. coli NB27273-CDY0026 (parent); assay: MIC by broth microdilution, isogenic E. coli parent strain; assay type: cell-based; settings: Escherichia coli, read-out: Strain 1 MIC
Description: Bacterial isolates were cultivated from −70° C. frozen stocks by two consecutive overnight passages at 35° C. in ambient air on 5% blood agar (Remel, Lenexa, Kans.). Quality control and P. aeruginosa ATCC 27853) is from the American Type Culture Collection (ATCC; Rockville, Md.) and PAO1 was received from Dr. K. Poole.
Strain NB27273 (BW25113 pspB::Km^r) was obtained from the Keio transposon insertion collection. The strain has the pspB gene replaced by a kanamycin resistance marker (BW25113 pspB::Km^r). This strain was cured of the transposon in pspB via FLP recombinase using published methodology. The resulting strain, BW25113 pspB, was used as a host for multicopy vectors expressing key β-lactamases. Multicopy plasmids directing constitutive expression of β-lactamases were established as follows: Synthetic, codon optimized genes encoding E. coli KPC2 and SHV12-lactamases were made by DNA2.0 (Palo Alto, Calif.). Each of the synthetic fragments were designed to contain NotI and NcoI restriction sites at their termini, allowing ligation into a NotI/NcoI digested pET28a(+) derivative for protein expression. […]

[2] = Stability of solid forms as relative humidity is varied; assay type: physicochemical
Description: This material is referred to herein as Form 5.
Water (20 mL) and THF (40 mL) were mixed in a flask, and Compound X (10 g, ca. 91% pure by HPLC) was added with stirring at 25° C. to provide a clear yellow solution. A 20 mg sample of Form 5 (see above) was added as a seed, and the mixture was stirred for 50 mins. THF (140 mL) was then added slowly, over 1 hr and the mixture was stirred for 2 hr more. The suspension was filtered, and the wet cake was washed with cold (<5° C.) water, then dried at 20-25° C. for 11 hrs at 100 mbar pressure, providing 6.6 g of Form 5 trihydrate that was 97.8% pure by HPLC. It appears stable when stored at 25-50% relative humidity, preferably 30-40% RH; at lower or higher relative humidity, it may evolve to different hydrated states as described herein.
Compound X of Form 1 (anhydrate) was exposed to 43% relative humidity for one day or more. The crystalline product appears to be a sesquihydrate (Compound X-1.5 H2O) based on water content determination. Note that Form 5, the trihydrate, under similar conditions would be stable, yet when starting with the anhydrate, it appears to equilibrate as a sequihdyrate under these conditions and remains in that form for at least 14 days when kept at the same relative humidity. This crystalline form produces the XRPD spectrum shown in FIG. 11, and is referred to herein as Form 10. The table below summarizes the main peaks in the XRPD of this sample.
Compound X of Form 5, the trihydrate, was exposed to relative humidity of 22% for about 3 days to provide a crystalline solid characterized as a dihydrate (Compound X-2H2O) based on water content analysis. […] The dihydrate, referred to herein as Form 11, produced the XRPD spectrum shown in FIG. 12: the main peaks in that XRPD spectrum are listed in the following table.
Compound X of Form 5 was exposed to air with a relative humidity of 65% for about 3 days, providing a crystalline material characterized as a tetra-hydrate based on water content analysis. […] The tetrahydrate, referred to herein as Form 12, produced the XRPD spectrum shown in FIG. 13: the main peaks in that XRPD spectrum are listed in the following table.
Note that at 92% relative humidity, Compound X appears to be a mixture of a crystal form characterized as hexahydrate mixed with the tetrahydrate of Form 12. By comparison, the anhydrate (Form 1) preferentially converts to a sesquihydrate as the relative humidity is increased to 43%, and evolves to trihydrate and tetrahydrate at higher relative humidities.

[3] = Stability testing of solid salts at 25° C. and 40° C., purity by HPLC; assay type: physicochemical; settings: solid salt
Description: Salts of Compound X were prepared by adding a base (1.0 or 2.0 equiv.) to Compound X in water, and lyophilizing the solution. The solids thus obtained appear to be amorphous by XRPD. In this manner, formation of salts of Compound X were attempted with sodium hydroxide, (L)-lysine, (L)-arginine, calcium hydroxide, meglumine, and magnesium hydroxide.
Samples of the disodium salt and the di-(L)-arginine salt as solids were subjected to stability testing at 25° C. and 40° C. The sample of sodium salt was 97.2% pure by HPLC initially, and after 6 weeks at 25° C., it was still 96.2% pure. The same material held at 40° C. was 94.8% pure after 3 weeks, and 93.6% pure after 6 weeks. Significant impurities that appear or increase during the study appear at relative retention times (RRT) 0.34 and 1.11 (with Compound X defined as RRT=1).
The arginine salt was 97.3% pure by HPLC initially, and was 96.3% pure after 6 weeks at 25° C. At 40° C., its purity dropped to 95.1% after 3 weeks and 94.2% after 6 weeks. Significant impurities that appear or increase during this study appear at relative retention times (RRT) 1.09, 1.11 and 1.13 (with Compound X defined as RRT=1). The HPLC traces for the samples from these stability studies after 6 weeks at 25° C. and 40° C. respectively are shown in FIGS. 10 and 11. The lower trace in each Figure is a sample used to measure the limit of quantitation (LOQ); the next trace above that represents the sample of Compound X used for salt formation; the next trace above that one is for the arginine salt after 6 weeks; and the next (top) trace is for the sodium salt after 6 weeks.
HPLC Conditions for the stability studies (FIGS. 10 and 11):
Agilent 1290 system with UV detector at 260 nm
Acquity HSS T3 column, 100 mm×2.1 mm ID; 1.8 μm particle size (supplied by Waters)
• A: 0.05% TFA in water • B: 0.05% TFA in methanol Flow rate: 0.45 mL/min Gradient (A/B ratio): 97:3 for 8 minutes; 75:25 for 3 minutes; 0:100 for 1 minute

[4] = Stability of Compound X and its salts in aqueous solution; assay type: physicochemical; settings: salts made with 1.0 or 2.0 equiv. base, lyophilized; for aqueous media for intravenous use
Text: It is important for a drug product to be stable enough to avoid significant degradation when it is shipped and stored under commercially practical conditions. The inventors have discovered that Compound X in solution is preferably used and stored at a pH between 4 and 6, preferably between 4.0 and 5.5, for maximum stability in the presence of moisture. Optimal solution stability is achieved at a pH of about 4.0 to 5.5 Accordingly, the invention provides pharmaceutical compositions comprising Compound X at a pH between 4 and 6, preferably between 4.0 and 5.5, and more preferably at a pH of about 5±0.5 or at pH of 5±0.2. Suitable compositions comprise Compound X in an aqueous solution, such as a dextrose or saline solution, which may be isotonic, and may contain other substances such as stabilizers, antioxidants, buffers or pH modifiers, nutrients, and the like. In some of these embodiments, the desired pH is achieved by combining Compound X and a pH modifier suitable to achieve the desired pH in an aqueous solution. Suitable pH modifiers include but are not limited to sodium hydroxide, sodium carbonate, sodium bicarbonate, potassium carbonate, potassium hydroxide, amines such as TRIS (tris(hydroxymethyl)aminomethane), and amino acids such as arginine, lysine, histidine, and the like. Known monobactams, including aztreonam, have been formulated with arginine. […]

## C[C@H]1[C@H](NC(=O)/C(=N\OC(C)(C)C(=O)O)c2csc(N)n2)C(=O)N1S(=O)(=O)O [compound 1]
[1]
  MIC: 0.125 µg/mL (≈ 0.287 µM)

## Nc1nc(/C(=N/OC2(C(=O)O)CC2)C(=O)N[C@@H]2C(=O)N(S(=O)(=O)O)[C@@H]2CN2CCOC2=O)cs1 [Form 12]
[2]; relative humidity reduced to about 40%
  form change when relative humidity is reduced: readily reverts to the trihydrate (Form 5)

## N=C(N)NCCC[C@H](N)C(=O)O.N=C(N)NCCC[C@H](N)C(=O)O.Nc1nc(/C(=N/OC2(C(=O)O)CC2)C(=O)N[C@@H]2C(=O)N(S(=O)(=O)O)[C@@H]2CN2CCOC2=O)cs1 [arginine salt]
[3]; after 3 weeks at 40° C.
  purity by HPLC: 95.1%
[3]; after 6 weeks at 25° C.
  purity by HPLC: 96.3%
[3]; after 6 weeks at 40° C.
  purity by HPLC: 94.2%
[3]; initially
  purity by HPLC: 97.3%
[4]
  stability of salts: particularly stable

## Nc1nc(/C(=N/OC2(C(=O)O)CC2)C(=O)N[C@@H]2C(=O)N(S(=O)(=O)O)[C@@H]2CN2CCOC2=O)cs1 [Form 10]
[2]; kept at 43% relative humidity
  time the form remains unchanged: at least 14 days

## Nc1nc(/C(=N/OC2(C(=O)O)CC2)C(=O)N[C@@H]2C(=O)N(S(=O)(=O)O)[C@@H]2CN2CCOC2=O)cs1 [Form 5]
[2]; RH above 80%
  form change at high relative humidity: converts to Form 4 within a day
[2]; storage of Form 5 trihydrate
  relative humidity at which the form appears stable when stored: 25-50%
